For test [1], the target named is T1, human CRTH2 (Homo sapiens, UniProt Q9Y5Y4, V204A).
T1 sequence (Q9Y5Y4 1-395 V204A): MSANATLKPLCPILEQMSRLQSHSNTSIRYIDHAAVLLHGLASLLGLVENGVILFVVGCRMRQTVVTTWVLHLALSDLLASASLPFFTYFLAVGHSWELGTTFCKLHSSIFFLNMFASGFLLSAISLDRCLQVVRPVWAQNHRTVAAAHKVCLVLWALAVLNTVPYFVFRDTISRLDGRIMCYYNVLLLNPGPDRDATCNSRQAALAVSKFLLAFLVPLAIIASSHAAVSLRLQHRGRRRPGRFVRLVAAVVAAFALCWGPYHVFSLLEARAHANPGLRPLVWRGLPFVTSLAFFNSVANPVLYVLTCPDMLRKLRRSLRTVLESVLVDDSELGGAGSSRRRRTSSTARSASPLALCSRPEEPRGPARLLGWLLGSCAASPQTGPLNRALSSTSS
Kind of test: Receptor binding assay: [3H]PGD2 competition binding on whole COS-7 cells transiently transfected with CRTH2 (also stable HEK293 cells). Further details: expressed in transfected cells; host or cells: COS-7 (transient, calcium phosphate). The source says:
(§1) Generation/origin of the cDNA Constructs. The coding sequence of the human CRTH2 receptor (genbank accession no NM_004778) was amplified by PCR from a human hippocampus cDNA library and inserted into the pcDNA3.1(+) expression vector (invitrogen) via 5′ HindIII and 3′ EcoRI. To generate a CRTH2-Renilla luciferase (CRTH2-Rluc) fusion protein, the CRTH2 coding sequence without a STOP codon and Rluc were amplified, fused in frame by PCR and subcloned into the pcDNA3.1(+)Zeo expression vector (invitrogen). Human β-arrestin2 (β-arr2) N-terminally tagged with GFP^2 (βarr2-GFP^2) and Renilla luciferase were purchased from BioSignal Packard Inc, (Montreal, Canada). The sequence identity of the construct was verified by restriction endonuclease digests and sequencing in both directions on an ABI Prism (Applied Biosystems, Foster City, Calif.).
(§2) Cell Culture and Transfection. COS-7 cells were grown in Dulbecco's modified Eagle's medium (DMEM) 1885 supplemented with 10% fetal bovine serum, 100 units/ml penicillin, […] streptomycin, and kept at 37° C. in a 10% CO2 atmosphere. HEK293 cells were maintained in Minimum Essential medium (MEM) supplemented with 10% (v/v) heat inactivated fetal calf serum (HIFCS), 2 mM Glutamax™-I, 1% non essential amino acids (NEAA), 1% sodium pyruvate and 10 μg/ml gentamicin. For binding experiments, COS7 cells were transiently transfected with the CRTH2 receptor using a calcium phosphate-DNA coprecipitation method with the addition of chloroquine (as described by Holst et al., 2001↓). To perform the functional Bioluminescence Resonance Energy Transfer (BRET) assays, a HEK293 cell clone stably expressing βarr2-GFP^2 and CRTH2-Rluc was generated (CRTH2-HEK293 cells).
Binding assay. 24 h after transfection COS-7 cells were seeded into 96 well plates at a density of 30.000 cells/well. Competition binding experiments on whole cells were then performed about 18-24 h later using 0.1 nM [^3H]PGD2 (NEN, 172 Ci/mmol) in a binding buffer consisting of HBSS (GIBCO) and 10 mM HEPES. Competing ligands were diluted in DMSO which was kept constant at 1% (v/v) of the final incubation volume. Total and nonspecific binding were determined in the absence and presence of 10 μM PGD2. Binding reactions were routinely conducted for 3 h at 4° C. and terminated by 2 washes (100 μl each) with ice cold binding buffer. Radioactivity was determined by liquid scintillation counting in a TOPCOUNTER (Packard) following over night incubation in Microscint 20. Stable HEK293 cells were seeded at a density of 30.000 cells/well 18-24 h prior to the binding assay which was performed essentially as described for COS7 cells above. Determinations were made in duplicates.
(§3) Curve analysis was performed with the GraphPadPrism software 3.0 (Graphpad Prism Inc., San Diego, USA) and IC50 values were calculated as a measure of the antagonistic potencies.

Test [2] has as its target T1, human CRTH2. Kind of test: Functional antagonist BRET assay on HEK293 cells stably expressing human CRTH2-Rluc and GFP2-β-arr2. In kind it is cell-based. Details: expressed in transfected cells. To be noted: read-out: Antag. IC50.
Source text: as §1, §2
BRET assay. Functional BRET assays were performed on HEK293 cells stably expressing human CRTH2-Rluc and GFP^2-β-arr2. Prior to their use in the BRET assay cells were detached and re-suspended in D-PBS with 1000 mg/L L-Glucose at a density of 2×10^6 cells/mL. DeepBlueC™ was diluted to 50 μM in D-PBS with 1000 mg/L L-Glucose (light sensitive). 100 μL of cell suspension was transferred to wells in a 96-well microplate (white OptiPlate) and placed in the Mithras LB 940 instrument (BERTHOLD TECHNOLOGIES, Bad Wildbad, Germany). 12 μL/well agonist was then injected by injector 1 and 10 μL/well DeepBlueC™ was injected simultaneously by injector 2. Five seconds after the injections the light output from the well was measured sequentially at 400 nm and 515 nm, and the BRET signal (mBRET ratio) was calculated by the ratio of the fluorescence emitted by GFP^2-β-arr2 (515 nm) over the light emitted by the receptor-Rluc (400 nm). Antagonists were added before placing the microplates into the Mithras LB 940 and allowed to incubate for 15 minutes prior to the addition of agonist and DeepBlueC™. Compounds were dissolved in DMSO and the final DMSO concentration was kept constant at 1% in the assay.
as §3

[3] abbreviates: competition with 0.1 nM [3H]PGD2, whole cells, 3 h at 4° C.
[4] abbreviates: BRET, antagonist incubated 15 minutes prior to agonist.

Data on 24 compounds can be found in patent US20110269763A1, “CRTH2 receptor ligands for medicinal uses” (7TM Pharma A/S, priority 2004, published 2011).

Take `O=C(O)COc1ccccc1C=NNC(=O)COc1ccc(Cl)cc1Cl` [D149]: the IC50 at human CRTH2 [1] (setting [3]) and on human CRTH2 [2] (setting [4]) was less than 500 nM each time.
Regarding `CC(C)c1ccc(OCC(=O)O)c(C(=O)c2cnn(-c3ccccc3Cl)c2)c1` [D31, 2-[1-(2-Chlorophenyl)-1H-pyrazole-4-carbonyl]-4-isopropylphenoxyacetic acid], the IC50 at human CRTH2 [1] (setting [3]) and at human CRTH2 [2] (setting [4]) was less than 500 nM throughout.
On to `CC(Oc1ccc(Br)cc1C(=O)c1cnn(-c2ccc(Br)cc2Br)c1)C(=O)O` (centres unmarked) [D69, 2-{4-Bromo-2-[1-(2,4-dibromophenyl)-1H-pyrazole-4-carbonyl]phenoxy}propionic acid], for which the IC50 at human CRTH2 [1] (setting [3]) and on human CRTH2 [2] (setting [4]) was less than 500 nM in each case.
Take `COc1ccc(OCC(=O)O)c(C(=O)c2cnn(-c3ccccc3)c2)c1` [D36, 4-Methoxy-2-[1-phenyl-1H-pyrazole-4-carbonyl]phenoxyacetic acid]: the IC50 at human CRTH2 [1] (setting [3]) is less than 500 nM; on human CRTH2 [2] (setting [4]), 500 to 5000 nM.
On to `CCOc1ccccc1-n1cc(C(=O)c2cc(Br)ccc2OC(C)C(=O)O)cn1` (centres unmarked) [D48, 2-{4-Bromo-2-[1-(2-ethoxyphenyl)-1H-pyrazole-4-carbonyl]phenoxy}propionic acid], for which the IC50 on human CRTH2 [1] (setting [3]) and at human CRTH2 [2] (setting [4]) was less than 500 nM in each case.
As to `Cc1cc(Cl)ccc1-n1cc(C(=O)c2cc(Br)ccc2OC(C)C(=O)O)cn1` (centres unmarked) [D62, 2-{4-Bromo-2-[1-(4-chloro-2-methylphenyl)-1H-pyrazole-4-carbonyl]phenoxy}propionic acid], the IC50 on human CRTH2 [1] (setting [3]) and at human CRTH2 [2] (setting [4]) was less than 500 nM each time.
With `CSc1ccccc1-n1cc(C(=O)c2cc(Br)ccc2OC(C)C(=O)O)cn1` (centres unmarked) [D49, 2-{4-Bromo-2-[1-(2-methylthio)-1H-pyrazole-4-carbonyl]phenoxy}propionic acid], the IC50 on human CRTH2 [1] (setting [3]) and on human CRTH2 [2] (setting [4]) was less than 500 nM in each case.
`O=C(O)COc1ccc(Br)cc1-c1nc(-c2ccccc2)co1` [D96, [4-Bromo-2-(4-phenyl-oxazol-2-yl)-phenoxy]acetic acid]: the IC50 at human CRTH2 [1] (setting [3]) was less than 500 nM; on human CRTH2 [2] (setting [4]), 500 to 5000 nM.
Turning to `Cc1ccc(-n2cc(C(=O)c3cc(Br)ccc3OCC(=O)O)cn2)c(Br)c1` [D45, {4-Bromo-2-[1-(2-bromo-4-methylphenyl)-1H-pyrazole-4-carbonyl]phenoxy}acetic acid], the IC50 on human CRTH2 [1] (setting [3]) and at human CRTH2 [2] (setting [4]) was less than 500 nM each time.
With `COc1cccc(Cc2nc(-c3cc(Br)ccc3OCC(=O)O)co2)c1` [D89, {4-Bromo-2-[2-(3-methoxybenzyl)oxazol-4-yl]phenoxy}acetic acid], the IC50 on human CRTH2 [1] (setting [3]) and at human CRTH2 [2] (setting [4]) was less than 500 nM throughout.
In the case of `CC(Oc1ccc(Br)cc1C(=O)c1cnn(-c2cc(Cl)ccc2Cl)c1)C(=O)O` (centres unmarked) [D63, 2-{4-Bromo-2-[1-(2,5-dichlorophenyl)-1H-pyrazole-4-carbonyl]phenoxy}propionic acid], the IC50 on human CRTH2 [1] (setting [3]) and at human CRTH2 [2] (setting [4]) was less than 500 nM each time.
As to `Cc1cc(Cl)ccc1-n1cc(C(=O)c2cc(Br)ccc2OCC(=O)O)cn1` [D58, {4-Bromo-2-[1-(4-chloro-2-methylphenyl)-1H-pyrazole-4-carbonyl]phenoxy}acetic acid], the IC50 at human CRTH2 [1] (setting [3]) and at human CRTH2 [2] (setting [4]) was less than 500 nM each time.
`O=C(O)COc1ccc(Br)cc1C(=O)c1cnn(-c2ccccc2Cl)c1` [D14, 4-Bromo-2-[1-(2-chloro-phenyl)-1H-pyrazole-4-carbonyl]phenoxyacetic acid]: the IC50 on human CRTH2 [1] (setting [3]) is more than 5000 nM; on human CRTH2 [2] (setting [4]), less than 500 nM.
Take `O=C(O)COc1ccc(Br)cc1C(=O)c1cnn(-c2ccc(Cl)cc2Cl)c1` [D26, 4-Bromo-2-[1-(2,4-dichlorophenyl)-1H-pyrazole-4-carbonyl]phenoxyacetic acid]: the IC50 at human CRTH2 [1] (setting [3]) and at human CRTH2 [2] (setting [4]) was less than 500 nM each time.
For the compound `O=C(O)COc1ccc(Br)cc1C(=O)c1cnn(-c2c(Cl)cncc2Cl)c1` [D80, {4-Bromo-2-[1-(3,5-dichloropyridin-4-yl)-1H-pyrazole-4-carbonyl]phenoxy}acetic acid], the IC50 on human CRTH2 [1] (setting [3]) and at human CRTH2 [2] (setting [4]) was less than 500 nM each time.
With `CC(Oc1ccc(Br)cc1C(=O)c1cnn(-c2ccc(Cl)cc2Cl)c1)C(=O)O` (centres unmarked) [D51, 2-{4-Bromo-2-[1-(2,4-dichlorophenyl)-1H-pyrazole-4-carbonyl]phenoxy}propionic acid], the IC50 at human CRTH2 [1] (setting [3]) and at human CRTH2 [2] (setting [4]) was less than 500 nM throughout.
With `Nc1ccc(OCC(=O)O)c(C(=O)c2cnn(-c3ccccc3)c2)c1` [D66, [4-Amino-2-(1-phenyl-1H-pyrazole-4-carbonyl)phenoxy]acetic acid], the 50% inhibitory concentration (IC50) at human CRTH2 [1] (setting [3]) was 500 to 5000 nM; on human CRTH2 [2] (setting [4]), less than 500 nM.
In the case of `CCc1cccc(C)c1-n1cc(C(=O)c2cc(Br)ccc2OCC(=O)O)cn1` [D72, {4-Bromo-2-[1-(2-ethyl-6-methylphenyl)-1H-pyrazole-4-carbonyl]phenoxy}acetic acid], the half-maximal inhibitory concentration (IC50) on human CRTH2 [1] (setting [3]) and on human CRTH2 [2] (setting [4]) was less than 500 nM throughout.
`CCc1cccc(CC)c1-n1cc(C(=O)c2cc(Br)ccc2OCC(=O)O)cn1` [D70, {4-Bromo-2-[1-(2,6-diethyl-phenyl)-1H-pyrazole-4-carbonyl]phenoxy}acetic acid]: the IC50 on human CRTH2 [1] (setting [3]) and on human CRTH2 [2] (setting [4]) was less than 500 nM in each case.
Consider `O=C(O)COc1ccc(Br)cc1C(=O)c1cnc(-c2ccccc2)s1` [D95, [4-Bromo-2-(2-phenylthiazole-5-carbonyl)phenoxy]acetic acid], for which the concentration for half-maximal inhibition (IC50) on human CRTH2 [1] (setting [3]) and at human CRTH2 [2] (setting [4]) was less than 500 nM in each case.
In the case of `O=C(O)COc1ccc(Br)cc1-c1nc(-c2cc(C(F)(F)F)cc(C(F)(F)F)c2)no1` [D109, {2-[3-(3,5-Bis-trifluoromethyl-phenyl)-[1,2,4]oxadiazol-5-yl]-4-bromo-phenoxy}-acetic acid], the IC50 at human CRTH2 [1] (receptor binding assay, Table 3) is less than 500 nM; at human CRTH2 [2] (functional antagonist assay, Table 3) it was more than 5000 nM.
`O=C(O)COc1ccc(Br)cc1C(=O)c1cnn(-c2ccccc2)c1` [D1, 4-Bromo-2-(1-phenyl-1H-pyrazole-4-carbonyl)phenoxyacetic acid]: the IC50 at human CRTH2 [1] (setting [3]) and at human CRTH2 [2] (setting [4]) was less than 500 nM throughout.
For `O=C(O)COc1ccc(Br)cc1C(=O)c1cnn(-c2ccc(Cl)cc2)c1` [D17, 4-Bromo-2-[1-(4-chlorophenyl)-1H-pyrazole-4-carbonyl]phenoxyacetic acid], the IC50 at human CRTH2 [1] (setting [3]) and on human CRTH2 [2] (setting [4]) was less than 500 nM throughout.
Take `O=C(O)COc1ccc(Br)cc1C(=O)c1cc(-c2c(Cl)cccc2Cl)no1` [D98, {4-Bromo-2-[3-(2,6-dichloro-phenyl)isoxazole-5-carbonyl]phenoxy}acetic acid]: the 50% inhibitory concentration (IC50) on human CRTH2 [1] (setting [3]) is less than 500 nM.

Broadly, the IC50 is the concentration that inhibits the measured activity by half.
